In patent US12422427B2, “Compounds for treatment of diseases and methods of screening therefor” (Max-Planck-Gesellschaft zur Förderung der Wissenschaften …, priority 2018, dated 2025):
“Also recorded” adds a separate entry of the source.

Columns and labels:
[1] = tested on: liquid-like non-membrane bound compartments; settings: cited from earlier work
[2] = tested on: HeLa cells expressing FUS GFP; experiment: HeLa cell compound dose responses (FUS GFP, arsenate stress); format: cell-based; settings: 1 h 1 mM arsenate stress
Procedure: Small dilution steps rather than concentration replicates were selected as it provides greater statistical power from a set number of samples. Final DMSO concentration was 0.08% in all samples, and each plate included at least 12 control wells with 0.08% DMSO. Cytoplasmic FUS droplet number and nuclear/cytoplasm partition of FUS were analysed using custom macros in ImageJ. Nuclei were identified by intensity thresholding of the blue fluorescence image following a 5 px Gaussian blur. Cytoplasmic FUS droplets by intensity thresholding of the green image following a 10 px weight 0.9 unsharp filter masked by the thresholded nuclei, and nuclear FUS droplets by intensity thresholding of the green image following a 5 px weight 0.9 unsharp filter and 10 px rolling ball background subtraction masked to only include thresholded nuclei. The ratio of cytoplasmic FUS drops to nuclei was taken as cytoplasmic FUS droplets per cell per field of view, and p, the ratio of partition of FUS to the nucleus and the cytoplasm, was derived from a=Vn/vt, the ratio of nuclear to total green signal per field of view, where p=a/(1−a). […] Six fields of view were captured and analysed per condition.

[3] = tested on: EWSR1, TIAL1, PABPC1, G3BP1; experiment: Panel of HeLa lines expressing GFP-labelled stress granule proteins, arsenate stress; format: cell-based; settings: 1 mM arsenate, 10 μM compound
Procedure: It was anticipated that a useful therapeutic would prevent all PLD-containing stress granule proteins from localising to stress granules. The inventors used 1 mM arsenate to stress a panel of HeLa cell lines expressing GFP fusions of stress granule proteins (EWSR1, TIAL1, PABPC1, G3BP1) with either no treatment or 10 μM lipoic acid or lipoamide.
Compound effects were assessed under a variety of conditions in HeLa or iPS cells expressing wild-type or P525L FUS GFP by live cell imaging. Different combinations of 1 h pre-treatment compound or pre-stress with arsenate followed by 1 h treatment with compound and/or stress with arsenate. Unless otherwise indicated, cells were pre-treated for 1 h using 10 μM compound from 10 mM stock in DMSO (or an equal volume of DMSO control) then stressed for 1 h with 1 mM potassium arsenate still in the presence of compound. GFP fluorescence was imaged by widefield epifluorescence using an inverted Olympus IX71 microscope with an Olympus 100× NA 1.4 Plan Apo oil immersion objective and a CoolSNAP HQ CCD camera (Photometrics), using a DeltaVision climate control unit (37° C., 5% CO2) (Applied Precision). The kinetics of pre-stress followed by treatment was analysed from images captured at 2 min intervals for 100 min, for single time points images were captured after 1 h unless otherwise indicated.

[4] = tested on: HeLa cells expressing FUS GFP; experiment: Stress granule formation in HeLa FUS GFP cells under different stresses; format: cell-based; settings: 10 μM; mitochondrial (rotenone), hyperosmotic (sorbitol) or arsenate stress
Procedure: The stressor, arsenate, will react with the thiol groups of lipoamide. Therefore, to exclude the possibility that lipoamide is acting only by removing the stressor, so it was further tested whether lipoic acid can prevent stress granule formation triggered by other stresses than arsenate (an oxidative) stress: Mitochondrial electron transport chain inhibition (rotenone), heat stress (42° C.), hyperosmotic stress (sorbitol, a non-metabolisable sugar), glycolysis inhibition ([…] in the absence of glucose) or serum starvation.
Various cellular stresses were achieved by replacing 1 h 1 mM potassium arsenate treatment with other conditions: 100 μM rotenone (R8875, Sigma Aldrich) from a 1 M stock in DMSO for 2 h (mitochondrial stress). […] Sorbitol (S1876, Sigma Aldrich) from a 4 M stock in H2O for 1 h (osmotic stress). 42° C. in normal growth medium for 30 m (heat stress). […] Appropriate solvent controls were used.

[5] = tested on: PAB-1; experiment: Protein aggregation in C. elegans: PAB-1; format: in vivo, Caenorhabditis elegans; settings: liquid culture from L4, scored day 2 of adulthood
Procedure: The effect of lipoic acid on stress granule protein aggregation in vivo was analysed using a C. elegans model for stress granule formation and aggregation. As previously described, fluorescent-tagged PAB-1 forms abundant stress granules and large solid aggregates during aging or upon chronic stress. RHO-1 and KIN-19 also aggregate during aging, but are not RNA binding or stress granule proteins. Three lines were used: Fluorescently tagged PAB-1 (DCD214: N2; uqIs24[pmyo-2::tagrfp::pab 1gene]), KIN-19 (CF3649: N2; muIs 209[pmyo-3::kin-19::tagrfp+ptph-1::GFP] and RHO-1 (DCD13: N2; uqIs9 [pmyo-2::rho-1::tagr fp+ptph-1::gfp]). Each were analysed as below, except DCD13 were maintained at 20° C.
The animals were exposed to lipoic acid in liquid culture in a 96 well plate starting from larval stage L4 in a total volume of 50 μl S-Complete per well (100 mM NaCl, 50 mM Potassium phosphate pH 6, 10 mM potassium citrate, 3 mM MgSO4, 3 mM CaCl2), 5 μg/mL cholesterol, 50 μM ethylenediaminetetraacetic acid (EDTA), 25 μM FeSO4, 10 μM MnCl2, 10 μM ZnSO4, 1 μM CuSO4) supplemented with heat-killed OP50 and 50 μg/ml carbenicillin. […] Toxicity was evaluated from the number of dead or aberrantly small-sized animals.
48 h after switching the L4s from 20° C. to 25° C. […] After immobilization with 2 mM levamisole aggregation was scored using a fluorescent stereo microscope (Leica M165 FC, Plan Apo 2.0× objective). […]

| Compound | concentrations required for in vitro or cellular activity [1] | toxicity at active concentrations [1] | EC50 reducing stress granule number, compared among compounds [2] | localisation of EWSR1, TIAL1, PABPC1, G3BP1 GFP to stress granules [3] | stress granule formation [4] | proportion of animals with aggregation of PAB-1 [5] |
| --- | --- | --- | --- | --- | --- | --- |
| OCCCCCCO [1,6-hexanediol] | 1-10% | rapidly toxic | – | – | – | – |
| S-(−)-lipoic acid | – | – | comparable EC50; also recorded: very similar activity | localised to stress granules in the absence of treatment, and not in the presence | reduced stress granule formation | dose-dependent decrease; also recorded: strong dose-dependent reduction |
| O=C(O)CCCC[C@@H]1CCSS1 [R-(+)-lipoic acid] | – | – | comparable EC50 | localised to stress granules in the absence of treatment, and not in the presence | reduced stress granule formation | dose-dependent decrease; also recorded: strong dose-dependent reduction |
